What all share (assay): relative viability (nuclei count vs DMSO), 5 days (fraction); higher = more cells survive
Compound in assay [1]: Cc1ccccc1C(C(=O)NC1CCCCC1)N(C(=O)Cn1ccnc1C)c1cccc(F)c1 [IDH-C35] + CS(=O)(=O)CCNCc1ccc(-c2ccc3ncnc(Nc4ccc(OCc5cccc(F)c5)c(Cl)c4)c3c2)o1 [Lapatinib] (partner 2 µM)
The essentials: (§1)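 Relative viability divides the nuclei count in treated wells by that in vehicle wells. Lung cancer cell lines were seeded in 1536-well plates, dosed by pin tool the next day, and fixed and stained after 5 days in one step with final 0.05% Triton X-100, 1% formaldehyde and 1 ug/ml Hoechst. Dosing was a single drug or a fixed anchor-drug dose plus five library-drug doses (not always all listed) in √10 steps, and values are medians of duplicate plates imaged at 4×.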

Compound in assay [2]: Cc1ccccc1C(C(=O)NC1CCCCC1)N(C(=O)Cn1ccnc1C)c1cccc(F)c1 [IDH-C35] + NC(=O)Nc1cc(-c2cccc(F)c2)sc1C(=O)N[C@H]1CCCNC1 [AZD7762] (partner 0.2 µM)
The method, boiled down: as §1

Compound in assay [3]: Cc1ccccc1C(C(=O)NC1CCCCC1)N(C(=O)Cn1ccnc1C)c1cccc(F)c1 [IDH-C35] + CCNC(=O)c1noc(-c2cc(C(C)C)c(O)cc2O)c1-c1ccc(CN2CCOCC2)cc1 [Luminespib] (partner 0.01 µM)
The essentials:
as §1

Compound in assay [4]: CC1=C(C(=NN1)C)CC2=C(C3=C(S2)N(C(=O)N(C3=O)C)CC(C)C)C(=O)N4C[C@@H](CO4)O + COc1cccc2cc(-c3nc([C@H]4CC[C@H](C(=O)O)CC4)n4ncnc(N)c34)[nH]c12 [OSI-027] (partner 0.5 µM)
The essentials: as §1

With NCI-H1792, the relative viability in assay [1] (first compound 0.08 µM) came to 0.806; in assay [1] (first compound 0.253 µM), 0.893; in assay [1] (first compound 0.8 µM) it was 0.87; in assay [1] (first compound 2.53 µM), 0.98; in assay [1] (first compound 8 µM), 0.973; in assay [2] (first compound 0.08 µM), 0.795. For the same cell line, the relative viability came to 0.725 in assay [2] (first compound 0.253 µM); 0.657 in assay [2] (first compound 0.8 µM); 0.719 in assay [2] (first compound 2.53 µM); 0.609 in assay [2] (first compound 8 µM); 0.477 in assay [3] (first compound 0.08 µM); 0.473 in assay [3] (first compound 0.253 µM). Moreover, the relative viability in assay [3] (first compound 0.8 µM) amounted to 0.499; in assay [3] (first compound 2.53 µM), 0.413; in assay [3] (first compound 8 µM), 0.493; in assay [4] (first compound 0.0025 µM), 0.739; in assay [4] (first compound 0.007906 µM), 0.816; in assay [4] (first compound 0.025 µM), 0.717. For the same cell line, the relative viability in assay [4] (first compound 0.07906 µM) was 0.645; in assay [4] (first compound 0.25 µM) it was 0.652.

With NCI-H1793, the relative viability in assay [1] (first compound 0.08 µM) was determined as 0.652; in assay [1] (first compound 0.253 µM), 0.648; in assay [1] (first compound 0.8 µM), 0.833; in assay [1] (first compound 2.53 µM), 0.674; in assay [1] (first compound 8 µM), 0.652; in assay [2] (first compound 0.08 µM), 0.46. The relative viability in assay [2] (first compound 0.253 µM) came out at 0.446; in assay [2] (first compound 0.8 µM), 0.46; in assay [2] (first compound 2.53 µM) it was 0.349; in assay [2] (first compound 8 µM), 0.443; in assay [3] (first compound 0.08 µM) it was 0.159; in assay [3] (first compound 0.253 µM), 0.215. Besides, the relative viability in assay [3] (first compound 0.8 µM) turned out to be 0.255; in assay [3] (first compound 8 µM) it was 0.184; in assay [4] (first compound 0.0025 µM), 0.298; in assay [4] (first compound 0.007906 µM), 0.289; in assay [4] (first compound 0.025 µM), 0.262; in assay [4] (first compound 0.07906 µM), 0.242. For the same cell line, the relative viability in assay [4] (first compound 0.25 µM) stood at 0.231.

NCI-H1915: the relative viability in assay [1] (first compound 0.08 µM) stood at 0.962; in assay [1] (first compound 0.253 µM) it was 0.996; in assay [1] (first compound 0.8 µM) it was 0.974; in assay [1] (first compound 2.53 µM), 0.934; in assay [1] (first compound 8 µM), 0.976; in assay [2] (first compound 0.08 µM), 0.674. Besides, the relative viability in assay [2] (first compound 0.253 µM) was 0.7; in assay [2] (first compound 0.8 µM), 0.696; in assay [2] (first compound 2.53 µM), 0.663; in assay [2] (first compound 8 µM) it was 0.716; in assay [3] (first compound 0.08 µM), 0.787; in assay [3] (first compound 0.253 µM) it was 0.715. The relative viability in assay [3] (first compound 0.8 µM) is 0.755; in assay [3] (first compound 2.53 µM) it was 0.815; in assay [3] (first compound 8 µM), 0.747; in assay [4] (first compound 0.0025 µM), 0.647; in assay [4] (first compound 0.007906 µM) it was 0.667; in assay [4] (first compound 0.025 µM) it was 0.646. For the same cell line, the relative viability in assay [4] (first compound 0.07906 µM) is 0.694; in assay [4] (first compound 0.25 µM), 0.659.

For NCI-H1944, the relative viability in assay [1] (first compound 0.08 µM) is 0.858; in assay [1] (first compound 0.253 µM), 0.824; in assay [1] (first compound 0.8 µM), 0.81; in assay [1] (first compound 2.53 µM), 0.774; in assay [1] (first compound 8 µM), 0.832; in assay [2] (first compound 0.08 µM), 0.587. Moreover, the relative viability in assay [2] (first compound 0.253 µM) is 0.731; in assay [2] (first compound 0.8 µM), 0.492; in assay [2] (first compound 2.53 µM) it was 0.462; in assay [2] (first compound 8 µM), 0.491; in assay [3] (first compound 0.08 µM), 0.79; in assay [3] (first compound 0.253 µM) it was 0.715. Also, the relative viability in assay [3] (first compound 0.8 µM) stood at 0.656; in assay [3] (first compound 2.53 µM), 0.681; in assay [3] (first compound 8 µM), 0.763; in assay [4] (first compound 0.0025 µM), 0.434; in assay [4] (first compound 0.007906 µM), 0.45; in assay [4] (first compound 0.025 µM), 0.416. For the same cell line, the results for the relative viability in assay [4] (first compound 0.07906 µM) and in assay [4] (first compound 0.25 µM) were 0.427 and 0.391, respectively.

Source of the values: the supplement of paper PMC10307832.
